Test results as given in US9567345B2, “Pharmaceutically active pyrazolo-triazine derivatives” (LEAD DISCOVERY CENTER GMBH, priority 2012, dated 2017).

How the values were obtained:
Assay type in all cases: biochemical
CDK9/Cyclin T1 = CDK9/Cyclin T1 (Homo sapiens, UniProt P50750); assay: CDK9 Enzymatic Activity Assay (Lance Kinase Activity Assay, FRET); details: Table 5B, class symbols per IC50 [nM] ranges of b581; read-out: CDK9: Selectivity of CDK7 inhibition over CDK9 inhibition
Outline: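 CDK9/cyclin T1 phosphorylation of a ULight-MBP peptide was run for 1 h at room temperature in pH 7.5 HEPES buffer with MgCl2, EGTA, DTT and Tween-20. It was followed by 1 h with Eu-anti-phospho-MBP antibody (4 nM) in EDTA detection buffer. TR-FRET loss gave IC50 from 8-point, 1:3 sigmoidal dose-response curves.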

CDK7/CycH/Mat1 = CDK7/CycH/Mat1 (Homo sapiens, UniProt P50613); assay: CDK7 Enzymatic Activity Assay (Lance Kinase Activity Assay, FRET); details: CDK7/CycH/Mat1, 25 μM ATP final; class ranges; read-out: CDK7: IC50 [nM] for CDK7 inhibition
Chain of CDK7/CycH/Mat1 (P50613 whole entry): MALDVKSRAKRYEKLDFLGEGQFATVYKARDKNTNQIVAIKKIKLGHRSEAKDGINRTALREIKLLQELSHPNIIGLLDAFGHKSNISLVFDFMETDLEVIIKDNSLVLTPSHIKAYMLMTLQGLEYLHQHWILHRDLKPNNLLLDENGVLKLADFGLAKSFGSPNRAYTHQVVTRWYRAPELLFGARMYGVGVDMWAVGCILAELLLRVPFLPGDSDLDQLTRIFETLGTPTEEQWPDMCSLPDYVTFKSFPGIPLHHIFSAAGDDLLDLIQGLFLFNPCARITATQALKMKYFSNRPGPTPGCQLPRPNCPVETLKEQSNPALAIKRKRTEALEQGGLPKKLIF
Outline: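 TR-FRET (LANCE) kinase assay: CDK7/CycH/Mat1 phosphorylates Ulight-MBP substrate for 1 h at room temperature in pH 7.5 HEPES buffer; detection 1 h with Eu-labelled anti-phospho antibody plus EDTA.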

CDK2/CycA = molecular target: T1, CDK2/CycA (Homo sapiens, UniProt P24941); assay: CDK2 Enzymatic Activity Assay (Lance Kinase Activity Assay, FRET); details: Table 5B, class symbols per IC50 [nM] ranges of b581; read-out: CDK2: Selectivity of CDK7 inhibition over CDK2 inhibition
T1 construct: purchased Proqinase
Outline: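 Compounds in an 8-step, 1:3 dilution series were incubated 1 h at room temperature with CDK2/CycA, ULight-MBP substrate and ATP in pH 7.5 HEPES buffer.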

Chain of CDK9/Cyclin T1 (P50750 whole entry): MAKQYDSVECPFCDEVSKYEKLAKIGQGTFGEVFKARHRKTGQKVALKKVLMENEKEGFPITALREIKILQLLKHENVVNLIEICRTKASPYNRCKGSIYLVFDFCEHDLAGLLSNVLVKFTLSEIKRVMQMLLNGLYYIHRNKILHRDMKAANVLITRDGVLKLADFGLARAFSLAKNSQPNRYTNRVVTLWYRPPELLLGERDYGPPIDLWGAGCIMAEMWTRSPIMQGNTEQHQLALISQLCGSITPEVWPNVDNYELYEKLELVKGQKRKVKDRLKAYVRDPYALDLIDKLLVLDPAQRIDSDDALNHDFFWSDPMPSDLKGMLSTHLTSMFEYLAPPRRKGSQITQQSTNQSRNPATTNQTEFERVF
Chain of CDK9/Cyclin T1 (O60563 whole entry partner): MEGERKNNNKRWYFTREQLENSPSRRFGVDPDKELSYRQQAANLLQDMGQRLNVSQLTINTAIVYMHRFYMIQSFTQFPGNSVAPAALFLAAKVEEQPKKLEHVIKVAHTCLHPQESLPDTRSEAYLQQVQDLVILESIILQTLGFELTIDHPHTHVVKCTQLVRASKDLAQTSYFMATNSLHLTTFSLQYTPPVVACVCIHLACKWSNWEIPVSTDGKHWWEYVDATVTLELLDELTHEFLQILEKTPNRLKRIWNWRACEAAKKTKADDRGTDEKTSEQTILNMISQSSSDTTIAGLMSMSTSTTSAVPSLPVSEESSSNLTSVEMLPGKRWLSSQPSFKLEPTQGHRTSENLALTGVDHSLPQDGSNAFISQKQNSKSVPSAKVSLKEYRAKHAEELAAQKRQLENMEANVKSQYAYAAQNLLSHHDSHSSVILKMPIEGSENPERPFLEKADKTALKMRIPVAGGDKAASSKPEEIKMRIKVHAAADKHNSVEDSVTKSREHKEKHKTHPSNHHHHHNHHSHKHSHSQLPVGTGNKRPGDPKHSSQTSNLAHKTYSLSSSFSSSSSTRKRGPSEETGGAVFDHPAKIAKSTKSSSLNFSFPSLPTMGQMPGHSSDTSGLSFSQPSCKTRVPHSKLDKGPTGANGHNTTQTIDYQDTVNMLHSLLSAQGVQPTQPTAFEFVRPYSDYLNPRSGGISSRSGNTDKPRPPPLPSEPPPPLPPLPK

Compound | IC50 (CDK9/Cyclin T1) | IC50 (CDK7/CycH/Mat1) | IC50 (CDK2/CycA)
CC(C)c1cnn2c(NCc3ccccc3N=S(C)(C)=O)nc(O[C@@H]3CCCNC3)nc12 [(VII-151), N-(2-(((8-isopropyl-2-((R)-piperidin-3-yloxy)pyrazolo[1,5-a][1,3,5]triazin-4-yl)amino)methyl)phenyl)-S,S-dimethylsulfoximine] | > 2500 nM | < 5 nM | 500 to 2500 nM
CC(C)c1cnn2c(NCc3ccccc3[S+](C)[O-])nc(O[C@@H]3CCCNC3)nc12 (stereo partly drawn) [(VII-152), 8-isopropyl-N-(2-(methylsulfinyl)benzyl)-2-((R)-piperidin-3-yloxy)pyrazolo[1,5-a][1,3,5]triazin-4-amine] | 500 to 2500 nM | 10 to 25 nM | 50 to 500 nM
CC(C)c1cnn2c(NCc3ccccc3[S+]([O-])C3CCCC3)nc(O[C@@H]3CCCNC3)nc12 (stereo partly drawn) [(VII-153), N-(2-(cyclopentylsulfinyl)benzyl)-8-isopropyl-2-((R)-piperidin-3-yloxy)pyrazolo[1,5-a][1,3,5]triazin-4-amine] | > 2500 nM | 10 to 25 nM | > 2500 nM
CC(C)c1cnn2c(NCc3ccccc3S(C)(=O)=O)nc(O[C@@H]3CCCNC3)nc12 [(VII-154), (R)-8-isopropyl-N-(2-(methylsulfonyl)benzyl)-2-(piperidin-3-yloxy)pyrazolo[1,5-a][1,3,5]triazin-4-amine] | > 2500 nM | < 5 nM | 50 to 500 nM
CC(C)c1cnn2c(NCc3ccccc3-n3cccn3)nc(NC3CCCNC3)nc12 (stereo not drawn) [(VIII-01), N4-(2-(1H-pyrazol-1-yl)benzyl)-8-isopropyl-N2-(piperidin-3-yl)pyrazolo[1,5-a][1,3,5]triazine-2,4-diamine] | > 2500 nM | < 5 nM | 50 to 500 nM
CC(C)c1cnn2c(NCc3ccccc3-n3cccn3)nc(N3CCC4(CCCN4)CC3)nc12 [(VIII-11), N-(2-(1H-pyrazol-1-yl)benzyl)-8-isopropyl-2-(1,8-diazaspiro[4.5]decan-8-yl)pyrazolo[1,5-a][1,3,5]triazin-4-amine] | > 2500 nM | < 5 nM | 500 to 2500 nM
CC(C)c1cnn2c(NCc3ccccc3-n3cccn3)nc(N3CCC4(CCCN4)C3)nc12 (stereo not drawn) [(VIII-17), N-(2-(1H-pyrazol-1-yl)benzyl)-8-isopropyl-2-(1,7-diazaspiro[4.4]nonan-7-yl)pyrazolo[1,5-a][1,3,5]triazin-4-amine] | > 2500 nM | < 5 nM | 500 to 2500 nM
CC(C)c1cnn2c(NCc3ccccc3-n3cccn3)nc(N3CCCC4(CCNCC4)C3)nc12 [(VIII-21), N-(2-(1H-pyrazol-1-yl)benzyl)-8-isopropyl-2-(2,9-diazaspiro[5.5]undecan-2-yl)pyrazolo[1,5-a][1,3,5]triazin-4-amine] | > 2500 nM | 5 to 10 nM | 500 to 2500 nM
CC(C)c1cnn2c(NCc3ccccc3-n3cccn3)nc(N3CCC4(CCCCN4)CC3)nc12 [(VIII-23), N-(2-(1H-pyrazol-1-yl)benzyl)-8-isopropyl-2-(1,9-diazaspiro[5.5]undecan-9-yl)pyrazolo[1,5-a][1,3,5]triazin-4-amine] | 500 to 2500 nM | < 5 nM | 500 to 2500 nM
CC(C)c1cnn2c(NCc3ccccc3-n3cccn3)nc(N3CCC(N(C)C)CC3)nc12 [(VIII-24), N-(2-(1H-pyrazol-1-yl)benzyl)-2-(4-(dimethylamino)piperidin-1-yl)-8-isopropylpyrazolo[1,5-a][1,3,5]triazin-4-amine] | 500 to 2500 nM | < 5 nM | 50 to 500 nM
CNC1CCN(c2nc(NCc3ccccc3-n3cccn3)n3ncc(C(C)C)c3n2)CC1 [(VIII-25), N-(2-(1H-pyrazol-1-yl)benzyl)-8-isopropyl-2-(4-(methylamino)piperidin-1-yl)pyrazolo[1,5-a][1,3,5]triazin-4-amine] | 500 to 2500 nM | < 5 nM | 50 to 500 nM
CC(C)Oc1ccccc1CNc1nc(N[C@@H]2CCCNC2)nc2c(C(C)C)cnn12 [(VIII-32), (R)-N4-(2-isopropoxybenzyl)-8-isopropyl-N2-(piperidin-3-yl)pyrazolo[1,5-a][1,3,5]triazine-2,4-diamine] | > 2500 nM | 5 to 10 nM | 500 to 2500 nM
CC(C)c1cnn2c(NCc3ccccc3-n3cncn3)nc(N[C@@H]3CCCNC3)nc12 [(VIII-33), (R)-N4-(2-(1H-1,2,4-triazol-1-yl)benzyl)-8-isopropyl-N2-(piperidin-3-yl)pyrazolo[1,5-a][1,3,5]triazine-2,4-diamine] | 500 to 2500 nM | < 5 nM | < 50 nM
CC(C)c1cnn2c(NCc3cccc4nonc34)nc(N3CCC4(CCCN4)CC3)nc12 [(VIII-36), N-(benzo[c][1,2,5]oxadiazol-4-ylmethyl)-8-isopropyl-2-(1,8-diazaspiro[4.5]decan-8-yl)pyrazolo[1,5-a][1,3,5]triazin-4-amine] | 500 to 2500 nM | < 5 nM | > 2500 nM
CC(C)c1cnn2c(NCc3ccccc3-n3cccn3)nc(N3CCC4(CCNCC4)C3)nc12 [(VIII-37), N-(2-(1H-pyrazol-1-yl)benzyl)-8-isopropyl-2-(2,8-diazaspiro[4.5]decan-2-yl)pyrazolo[1,5-a][1,3,5]triazin-4-amine] | > 2500 nM | < 5 nM | > 2500 nM
CC(C)c1cnn2c(NCc3ccccc3N3CCCC3=O)nc(N3CCC4(CCCN4)CC3)nc12 [(VIII-38), 1-(2-(((8-isopropyl-2-(1,8-diazaspiro[4.5]decan-8-yl)pyrazolo[1,5-a][1,3,5]triazin-4-yl)amino)methyl)phenyl)pyrrolidin-2-one] | > 2500 nM | < 5 nM | > 2500 nM
CC(C)c1cnn2c(NCc3ccccc3-n3cccn3)nc(NCCCN)nc12 [(VIII-039), N4-(2-(1H-pyrazol-1-yl)benzyl)-N2-(3-aminopropyl)-8-isopropylpyrazolo[1,5-a][1,3,5]triazine-2,4-diamine] | > 2500 nM | > 25 nM | > 2500 nM
CC(C)c1cnn2c(NCc3ccccc3-n3cccn3)nc(NCCN3CCCC3)nc12 [(VIII-040), N4-(2-(1H-pyrazol-1-yl)benzyl)-8-isopropyl-N2-(2-(pyrrolidin-1-yl)ethyl)pyrazolo[1,5-a][1,3,5]triazine-2,4-diamine] | > 2500 nM | > 25 nM | > 2500 nM
CC(C)c1cnn2c(NCc3ccccc3-n3cccn3)nc(N3CC(N4CCC(F)(F)C4)C3)nc12 [(VIII-041), N-(2-(1H-pyrazol-1-yl)benzyl)-2-(3-(3,3-difluoropyrrolidin-1-yl)azetidin-1-yl)-8-isopropylpyrazolo[1,5-a][1,3,5]triazin-4-amine] | > 2500 nM | > 25 nM | > 2500 nM
CC(C)c1cnn2c(NCc3ccccc3-n3cccn3)nc(NC3CCNC3)nc12 (stereo not drawn) [(VIII-043), N4-(2-(1H-pyrazol-1-yl)benzyl)-8-isopropyl-N2-(pyrrolidin-3-yl)pyrazolo[1,5-a][1,3,5]triazine-2,4-diamine] | > 2500 nM | 5 to 10 nM | 50 to 500 nM
CC(C)c1cnn2c(NCc3ccccc3-n3cccn3)nc(NCCCN3CCOCC3)nc12 [(VIII-044), N4-(2-(1H-pyrazol-1-yl)benzyl)-8-isopropyl-N2-(3-morpholinopropyl)pyrazolo[1,5-a][1,3,5]triazine-2,4-diamine] | > 2500 nM | > 25 nM | > 2500 nM
CC(C)c1cnn2c(NCc3ccccc3-n3cccn3)nc(N(C)CCN3CCCC3)nc12 [(VIII-045), N4-(2-(1H-pyrazol-1-yl)benzyl)-8-isopropyl-N2-methyl-N2-(2-(pyrrolidin-1-yl)ethyl)pyrazolo[1,5-a][1,3,5]triazine-2,4-diamine] | > 2500 nM | 10 to 25 nM | > 2500 nM
CC(C)c1cnn2c(NCc3ccccc3-n3cccn3)nc(NCCN3CCOCC3)nc12 [(VIII-046), N4-(2-(1H-pyrazol-1-yl)benzyl)-8-isopropyl-N2-(2-morpholinoethyl)pyrazolo[1,5-a][1,3,5]triazine-2,4-diamine] | > 2500 nM | > 25 nM | > 2500 nM
CC(C)c1cnn2c(NCc3ccccc3-n3cccn3)nc(N3CC(N4CCCC4=O)C3)nc12 [(VIII-047), 1-(1-(4-((2-(1H-pyrazol-1-yl)benzyl)amino)-8-isopropylpyrazolo[1,5-a][1,3,5]triazin-2-yl)azetidin-3-yl)pyrrolidin-2-one] | > 2500 nM | > 25 nM | > 2500 nM
CC(C)c1cnn2c(NCc3ccccc3-n3cccn3)nc(NCCOCCN)nc12 [(VIII-048), N4-(2-(1H-pyrazol-1-yl)benzyl)-N2-(2-(2-aminoethoxy)ethyl)-8-isopropylpyrazolo[1,5-a][1,3,5]triazine-2,4-diamine] | > 2500 nM | 10 to 25 nM | > 2500 nM
CC(C)c1cnn2c(NCc3ccccc3-n3cccn3)nc(N(C)CCCN3CCCCC3)nc12 [(VIII-049), N4-(2-(1H-pyrazol-1-yl)benzyl)-8-isopropyl-N2-methyl-N2-(3-(piperidin-1-yl)propyl)pyrazolo[1,5-a][1,3,5]triazine-2,4-diamine] | > 2500 nM | > 25 nM | > 2500 nM
